What all share (assay): relative viability (nuclei count vs DMSO), 5 days (fraction); higher = more cells survive
Compound in test [1]: CCc1cnn2c(NCc3ccc[n+]([O-])c3)cc(N3CCCC[C@H]3CCO)nc12 [Dinaciclib] + C[C@@H](Oc1cc(-c2cnn(C3CCNCC3)c2)cnc1N)c1c(Cl)ccc(F)c1Cl [Crizotinib] (partner 1 µM)
The method, boiled down:
(§1)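 Medians of duplicate plates are given as relative viability. That measure is the nuclei count in treated wells divided by the count in vehicle wells. Counts were taken on 4× images of lung cancer cell lines in 1536-well plates, 5 days after pin-tool dosing the day after seeding with one drug alone or a fixed anchor-drug dose plus five library-drug doses (not always all listed) in √10 steps.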

Compound in test [2]: CCc1cnn2c(NCc3ccc[n+]([O-])c3)cc(N3CCCC[C@H]3CCO)nc12 [Dinaciclib] + CCNC(=O)c1noc(-c2cc(C(C)C)c(O)cc2O)c1-c1ccc(CN2CCOCC2)cc1 [Luminespib] (partner 0.01 µM)
The method, boiled down:
as §1

Compound in test [3]: CCc1cnn2c(NCc3ccc[n+]([O-])c3)cc(N3CCCC[C@H]3CCO)nc12 [Dinaciclib] + C[C@]1(O)C[C@@H](c2nc(-c3ccc4ccc(-c5ccccc5)nc4c3)c3c(N)nccn32)C1 [Linsitinib] (partner 1 µM)
The procedure, abridged:
as §1

Compound in test [4]: CCc1cnn2c(NCc3ccc[n+]([O-])c3)cc(N3CCCC[C@H]3CCO)nc12 [Dinaciclib] + CS(=O)(=O)N1CCN(Cc2cc3nc(-c4cccc5[nH]ncc45)nc(N4CCOCC4)c3s2)CC1 [Pictilisib] (partner 1 µM)
The procedure, abridged: as §1

Compound in test [5]: CCc1cnn2c(NCc3ccc[n+]([O-])c3)cc(N3CCCC[C@H]3CCO)nc12 [Dinaciclib] + N=C(N)NC(=N)NCCc1ccccc1 [Phenformin] (partner 250 µM)
The method, boiled down: as §1

Experimental findings from the supplement of paper PMC10307832 are described below.

EPLC-272H: the relative viability in test [1] (first compound 0.009487 µM) was found to be 0.853; in test [1] (first compound 0.03 µM), 0.484; in test [1] (first compound 0.09487 µM), 0.0554; in test [1] (first compound 0.3 µM), 0.0387; in test [2] (first compound 0.009487 µM), 0.2; in test [2] (first compound 0.03 µM), 0.0547. The relative viability was found to be 0.042 in test [2] (first compound 0.09487 µM); 0.0355 in test [2] (first compound 0.3 µM); 1.29 in test [3] (first compound 0.009487 µM); 0.665 in test [3] (first compound 0.03 µM); 0.33 in test [3] (first compound 0.09487 µM); 0.0559 in test [3] (first compound 0.3 µM). The relative viability in test [4] (first compound 0.009487 µM) was determined as 0.218; in test [4] (first compound 0.03 µM), 0.0536; in test [4] (first compound 0.09487 µM), 0.0465; in test [4] (first compound 0.3 µM) it was 0.046; in test [5] (first compound 0.009487 µM) it was 0.344; in test [5] (first compound 0.03 µM) it was 0.122. Besides, the results for the relative viability in test [5] (first compound 0.09487 µM) and in test [5] (first compound 0.3 µM) were 0.0306 and 0.0277, respectively.
On to NCI-H358, for which the relative viability is 0.373 in test [1] (first compound 0.009487 µM); 0.0972 in test [1] (first compound 0.03 µM); 0.135 in test [1] (first compound 0.09487 µM); 0.144 in test [1] (first compound 0.3 µM); 0.276 in test [2] (first compound 0.009487 µM); 0.0982 in test [2] (first compound 0.03 µM). In addition, the relative viability in test [2] (first compound 0.09487 µM) was 0.0922; in test [2] (first compound 0.3 µM), 0.0842; in test [3] (first compound 0.009487 µM), 0.552; in test [3] (first compound 0.03 µM), 0.149; in test [3] (first compound 0.09487 µM), 0.185; in test [3] (first compound 0.3 µM), 0.176. Besides, the relative viability in test [4] (first compound 0.009487 µM) came to 0.272; in test [4] (first compound 0.03 µM), 0.185; in test [4] (first compound 0.09487 µM) it was 0.174; in test [4] (first compound 0.3 µM) it was 0.176; in test [5] (first compound 0.009487 µM), 0.268; in test [5] (first compound 0.03 µM), 0.078. The results for the relative viability in test [5] (first compound 0.09487 µM) and in test [5] (first compound 0.3 µM) were 0.0729 and 0.0856, respectively.
In the case of NCI-H596, the relative viability in test [1] (first compound 0.009487 µM) amounted to 1.06; in test [1] (first compound 0.03 µM), 0.746; in test [1] (first compound 0.09487 µM), 0.196; in test [1] (first compound 0.3 µM), 0.196; in test [2] (first compound 0.009487 µM) it was 0.564; in test [2] (first compound 0.03 µM) it was 0.566. The relative viability in test [2] (first compound 0.09487 µM) was 0.174; in test [2] (first compound 0.3 µM), 0.186; in test [3] (first compound 0.009487 µM) it was 0.847; in test [3] (first compound 0.03 µM), 0.468; in test [3] (first compound 0.09487 µM) it was 0.169; in test [3] (first compound 0.3 µM), 0.193. For the same cell line, the relative viability was 0.418 in test [4] (first compound 0.009487 µM); 0.245 in test [4] (first compound 0.03 µM); 0.157 in test [4] (first compound 0.09487 µM); 0.106 in test [4] (first compound 0.3 µM); 0.875 in test [5] (first compound 0.009487 µM); 0.692 in test [5] (first compound 0.03 µM). Further, the relative viability was 0.438 in test [5] (first compound 0.09487 µM) and 0.216 in test [5] (first compound 0.3 µM).
In the case of NCI-H322M, the relative viability in test [1] (first compound 0.009487 µM) is 1.05; in test [1] (first compound 0.03 µM) it was 0.66; in test [1] (first compound 0.09487 µM), 0.191; in test [1] (first compound 0.3 µM), 0.182; in test [2] (first compound 0.009487 µM) it was 0.431; in test [2] (first compound 0.03 µM), 0.243. In addition, the relative viability came to 0.265 in test [2] (first compound 0.09487 µM); 0.229 in test [2] (first compound 0.3 µM); 0.925 in test [3] (first compound 0.009487 µM); 0.477 in test [3] (first compound 0.03 µM); 0.224 in test [3] (first compound 0.09487 µM); 0.229 in test [3] (first compound 0.3 µM). In addition, the relative viability came to 0.497 in test [4] (first compound 0.009487 µM); 0.262 in test [4] (first compound 0.03 µM); 0.2 in test [4] (first compound 0.09487 µM); 0.583 in test [4] (first compound 0.3 µM); 0.41 in test [5] (first compound 0.009487 µM); 0.315 in test [5] (first compound 0.03 µM). Moreover, the results for the relative viability in test [5] (first compound 0.09487 µM) and in test [5] (first compound 0.3 µM) were 0.244 and 0.267, respectively.
Turning to NCI-H1563, the relative viability in test [1] (first compound 0.009487 µM) is 1.03; in test [1] (first compound 0.03 µM) it was 0.379; in test [1] (first compound 0.09487 µM), 0.34; in test [1] (first compound 0.3 µM) it was 0.303; in test [2] (first compound 0.009487 µM), 0.526; in test [2] (first compound 0.03 µM), 0.272. In addition, the relative viability in test [2] (first compound 0.09487 µM) stood at 0.177; in test [2] (first compound 0.3 µM) it was 0.128; in test [3] (first compound 0.009487 µM) it was 1.39; in test [3] (first compound 0.03 µM), 0.794; in test [3] (first compound 0.09487 µM) it was 0.331; in test [3] (first compound 0.3 µM), 0.376. Also, the relative viability turned out to be 0.655 in test [4] (first compound 0.009487 µM); 0.326 in test [4] (first compound 0.03 µM); 0.296 in test [4] (first compound 0.09487 µM); 0.284 in test [4] (first compound 0.3 µM); 0.745 in test [5] (first compound 0.009487 µM); 0.365 in test [5] (first compound 0.03 µM). Moreover, the relative viability in test [5] (first compound 0.09487 µM) was 0.259; in test [5] (first compound 0.3 µM), 0.236.
